Test results: ChEMBL document CHEMBL1201862, “PubChem BioAssay data set” (2004)
Calls of active or inactive are those of the source.

Experiments:
[1] = viability of uninfected HEp-2 cells – cell-based, HTS, cytotoxicity control for RSV inhibitor project, dose response (AID 2410); type: functional; settings: human respiratory syncytial virus
[2] = HPDE-C7 pancreatic duct cell viability loss – fluorescence, HTS (AID 430); type: functional, cell-based; settings: Homo sapiens
[3] = viability loss of HPDE-C7K cells – cell-based, fluorescence, HTS, primary screen (AID 431); type: functional; settings: Homo sapiens
[4] = viability of PTEN-deleted HCT116 cells – cell-based, HCT116 PTEN knockout, dose response (AID 1047); type: functional;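 further: HCT116 colon tumor cells with PTEN knocked out; cells exposed to compound for 60 hours before readout; potency for loss of cell viability measured by luminescence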
[5] = viability of HCT116 lacking mutant beta-catenin – cell-based, human colon tumor, dose response (AID 1045); type: functional;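 further: HCT116 colon tumor cells with beta catenin knocked out; cells exposed to compound for 60 hours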
[6] = target: Dual specificity tyrosine-phosphorylation-regulated kinase 1A (Rattus norvegicus, UniProt Q63470); type: biochemical, Homo sapiens
[7] = target: T1, DNA repair protein RAD52 homolog (Homo sapiens, UniProt P43351); type: functional, biochemical
T1 sequence (P43351 whole entry): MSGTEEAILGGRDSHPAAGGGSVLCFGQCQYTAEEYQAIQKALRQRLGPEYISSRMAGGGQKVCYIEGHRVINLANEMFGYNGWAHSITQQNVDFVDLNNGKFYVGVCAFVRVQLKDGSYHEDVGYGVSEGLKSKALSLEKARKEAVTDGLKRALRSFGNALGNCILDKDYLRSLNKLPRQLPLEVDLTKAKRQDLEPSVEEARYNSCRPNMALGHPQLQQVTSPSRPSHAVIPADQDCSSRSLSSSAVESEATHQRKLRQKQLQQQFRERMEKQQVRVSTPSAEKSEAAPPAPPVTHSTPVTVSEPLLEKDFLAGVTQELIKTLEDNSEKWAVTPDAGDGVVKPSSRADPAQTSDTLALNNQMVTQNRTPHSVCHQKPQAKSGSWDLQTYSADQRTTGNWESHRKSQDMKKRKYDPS

[8] = target: T2, Tyrosine-protein phosphatase non-receptor type 7 (Homo sapiens, UniProt P35236); experiment: HePTP tyrosine phosphatase activity blockers – biochemical, absorbance, leukemia target, primary screen (AID 521); type: functional
T2 sequence (P35236 whole entry): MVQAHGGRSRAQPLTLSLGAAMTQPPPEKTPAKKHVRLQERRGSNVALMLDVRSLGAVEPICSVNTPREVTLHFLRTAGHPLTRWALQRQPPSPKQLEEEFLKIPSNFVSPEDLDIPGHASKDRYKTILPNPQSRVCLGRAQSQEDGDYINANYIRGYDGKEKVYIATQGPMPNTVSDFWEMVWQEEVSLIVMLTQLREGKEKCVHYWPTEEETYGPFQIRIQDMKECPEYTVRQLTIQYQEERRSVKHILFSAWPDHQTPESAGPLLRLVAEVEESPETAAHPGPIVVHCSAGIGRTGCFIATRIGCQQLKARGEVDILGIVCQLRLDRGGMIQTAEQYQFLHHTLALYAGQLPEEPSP

[9] = Luminescence Cell-Based Dose Response to Identify Activators of 5'UTR Stem-Loop Driven Prion Protein mRNA Translation in H4-C Neuroglioblastoma Cells. [Related pubchem assays: 1829 (Project Summary), 1814 (Primary HTS)]; type: functional
[10] = Luminescence Cell-Based Dose Response HTS to Identify Activators of Luciferase Translation or Activity in H4 […] Cells. [Related pubchem assays: 1829 (Project Summary), 1814 (Primary HTS)]; type: functional
H4 = experiment: Luminescence Cell-Based Dose Response HTS to Identify Activators of 5'UTR Stem-Loop Driven Prion Protein mRNA Translation in H4 Neuroglioblastoma Cells. [Related pubchem assays: 1829 (Project Summary), 1814 (Primary HTS)]; type: functional; settings: Homo sapiens
[11] = Luminescence Cell-Based Dose Response to Identify Activators of Luciferase Translation or Activity in H4-C Neuroglioblastoma Cells. [Related pubchem assays: 1829 (Project Summary), 1814 (Primary HTS)]; type: functional
[12] = Luminescence Cell-Based Dose Confirmation to Identify Activators of 5'UTR Stem-Loop Driven Alpha-Synuclein mRNA Translation in H4 Neuroglioblastoma Cells. [Related pubchem assays: 1829 (Project Summary), 1814 (Primary HTS)]; type: functional
[13] = target: T3, RNA-binding protein pos-1 (Caenorhabditis elegans, UniProt G5EF15); experiment: disruptors of C. elegans POS-1 RNA interaction – biochemical, fluorescence polarization, dose response (AID 1964);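 further: purified POS-1 fused to maltose binding protein made in E. coli; potency of compounds blocking POS-1 binding to fluorescent RNA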
T3 sequence (G5EF15 whole entry): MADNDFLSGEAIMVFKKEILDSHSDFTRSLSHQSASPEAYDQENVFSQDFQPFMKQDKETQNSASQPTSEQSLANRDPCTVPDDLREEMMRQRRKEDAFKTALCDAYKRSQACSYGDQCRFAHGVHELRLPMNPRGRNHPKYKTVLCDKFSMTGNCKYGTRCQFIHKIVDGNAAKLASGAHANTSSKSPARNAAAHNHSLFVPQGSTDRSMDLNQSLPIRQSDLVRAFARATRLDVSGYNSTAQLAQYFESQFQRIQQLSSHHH

[14] = target: T4, Zinc finger protein mex-5 (Caenorhabditis elegans, UniProt Q9XUB2); experiment: potency of MEX-5 RNA-binding blockers – biochemical, C. elegans, fluorescence polarization, dose response (AID 1960)
T4 sequence (Q9XUB2 whole entry): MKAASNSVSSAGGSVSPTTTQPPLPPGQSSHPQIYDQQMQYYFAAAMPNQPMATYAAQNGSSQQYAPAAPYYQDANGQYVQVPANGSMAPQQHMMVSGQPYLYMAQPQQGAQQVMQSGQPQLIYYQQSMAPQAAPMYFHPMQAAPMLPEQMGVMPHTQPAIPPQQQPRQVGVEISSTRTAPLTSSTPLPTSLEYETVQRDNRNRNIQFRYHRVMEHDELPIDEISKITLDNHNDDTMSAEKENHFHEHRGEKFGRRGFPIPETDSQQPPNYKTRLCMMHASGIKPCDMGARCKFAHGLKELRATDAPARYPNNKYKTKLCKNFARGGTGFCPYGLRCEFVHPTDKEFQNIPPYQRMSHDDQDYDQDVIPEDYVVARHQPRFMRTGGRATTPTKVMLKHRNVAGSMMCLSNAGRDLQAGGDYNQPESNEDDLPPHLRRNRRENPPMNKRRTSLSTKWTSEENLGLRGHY

[15] = Luminescence Cell-Based Dose Retest to Confirm Inhibitors of Cancer Stem Cells. [Related pubchem assays (depositor defined):AID2717, AID2721]; type: functional; settings: Homo sapiens
[16] = viability loss of HMLE_sh_eGFP cells – cell-based, luminescence, counter-screen for HMLE_sh_ECad selective toxicity project, dose response (AID 463074); type: functional, Homo sapiens;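 further: HMLE human mammary epithelial cells expressing control shRNA against eGFP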
[17] = target: 26S proteasome non-ATPase regulatory subunit 14 (Homo sapiens, UniProt O00487); experiment: inhibition of proteasome subunit RPN11 – biochemical, fluorescence polarization, uHTS hits, confirmation (AID 602368); type: functional
[18] = target: 72 kDa type IV collagenase (Homo sapiens, UniProt P08253); experiment: Dose Response validation of uHTS RPN11 inhibitor hits using a MMP-2 Fluorescence assay.; type: functional
Prothrombin = Prothrombin (Bos taurus, UniProt P00735); experiment: thrombin protease inhibitors – biochemical, fluorescence polarization, uHTS hits, dose response (AID 602369); type: functional
[19] = viability loss in THP-1 monocytes – THP-1 cells, cytotoxicity control for Vif-APOBEC3G degradation inhibitor project, dose response (AID 1117359); type: functional; settings: THP-1
[20] = HIV-1 Vif–A3G interaction blockers – biochemical, TR-FRET, GST-Vif 1-94, biotin-A3G peptide, dose response retest, primary screen (AID 1117319); type: functional;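 further: TR-FRET signal of purified GST-Vif binding a biotinylated A3G peptide; inhibitors lower the FRET signal by blocking Vif and A3G binding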
[21] = target: Induced myeloid leukemia cell differentiation protein Mcl-1 (Homo sapiens, UniProt Q07820); experiment: blockers of MCL1 binding to BIM peptide – biochemical, fluorescence polarization, BIM-BH3 peptide, 1536-well, dose response (AID 2217)
Bcl-2-like protein 1 = Bcl-2-like protein 1 (Homo sapiens, UniProt Q07817); experiment: blockers of BCLXL peptide binding – biochemical, fluorescence polarization, 1536-well, selectivity assay for MCL1 inhibitor project, dose response (AID 2218)
[22] = Luminescence Cell-Based Dose Confirmation HTS to Identify Activators of 5'UTR Stem-Loop Driven Alpha-Synuclein mRNA Translation in H4 Neuroglioblastoma Cells. [Related pubchem assays: 1829 (Project Summary), 1814 (Primary HTS)]; type: functional

Induced myeloid leukemia cell differentiation protein Mcl-1, sequence (Q07820 whole entry): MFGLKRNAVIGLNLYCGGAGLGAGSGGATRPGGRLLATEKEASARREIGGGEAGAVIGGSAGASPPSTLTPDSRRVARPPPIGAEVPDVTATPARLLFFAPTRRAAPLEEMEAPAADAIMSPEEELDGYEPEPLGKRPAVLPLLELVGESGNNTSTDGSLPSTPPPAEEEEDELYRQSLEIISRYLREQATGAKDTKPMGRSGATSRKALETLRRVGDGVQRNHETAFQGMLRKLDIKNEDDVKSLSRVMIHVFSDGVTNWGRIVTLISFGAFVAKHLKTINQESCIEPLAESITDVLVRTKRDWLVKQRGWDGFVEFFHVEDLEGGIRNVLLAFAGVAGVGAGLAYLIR
72 kDa type IV collagenase, sequence (P08253 whole entry): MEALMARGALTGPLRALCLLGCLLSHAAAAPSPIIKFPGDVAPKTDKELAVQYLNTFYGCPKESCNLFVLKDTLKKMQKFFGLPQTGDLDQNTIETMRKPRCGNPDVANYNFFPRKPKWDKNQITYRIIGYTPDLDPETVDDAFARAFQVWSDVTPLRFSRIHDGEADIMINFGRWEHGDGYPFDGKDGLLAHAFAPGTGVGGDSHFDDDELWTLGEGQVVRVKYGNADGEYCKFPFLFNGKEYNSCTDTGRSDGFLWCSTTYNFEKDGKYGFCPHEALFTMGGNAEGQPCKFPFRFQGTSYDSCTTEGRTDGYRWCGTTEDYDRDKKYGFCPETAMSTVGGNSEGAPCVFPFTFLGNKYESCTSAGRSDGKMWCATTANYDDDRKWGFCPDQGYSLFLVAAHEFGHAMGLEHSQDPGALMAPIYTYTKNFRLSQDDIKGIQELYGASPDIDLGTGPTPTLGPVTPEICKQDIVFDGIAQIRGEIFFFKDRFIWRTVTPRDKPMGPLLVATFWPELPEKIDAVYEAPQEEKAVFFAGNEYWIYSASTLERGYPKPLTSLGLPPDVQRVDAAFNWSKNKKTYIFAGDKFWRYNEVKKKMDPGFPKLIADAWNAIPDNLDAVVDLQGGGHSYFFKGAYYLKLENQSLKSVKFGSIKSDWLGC
26S proteasome non-ATPase regulatory subunit 14, sequence (O00487 whole entry): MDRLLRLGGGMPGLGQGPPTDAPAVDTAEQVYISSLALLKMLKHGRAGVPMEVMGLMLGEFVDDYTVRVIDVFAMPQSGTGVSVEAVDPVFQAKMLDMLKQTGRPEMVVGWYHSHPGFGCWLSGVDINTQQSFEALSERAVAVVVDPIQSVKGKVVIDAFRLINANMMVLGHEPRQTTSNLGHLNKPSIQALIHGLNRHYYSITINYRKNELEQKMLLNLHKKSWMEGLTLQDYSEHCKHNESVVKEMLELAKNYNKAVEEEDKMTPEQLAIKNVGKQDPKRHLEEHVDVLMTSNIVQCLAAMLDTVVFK
Bcl-2-like protein 1, sequence (Q07817 whole entry): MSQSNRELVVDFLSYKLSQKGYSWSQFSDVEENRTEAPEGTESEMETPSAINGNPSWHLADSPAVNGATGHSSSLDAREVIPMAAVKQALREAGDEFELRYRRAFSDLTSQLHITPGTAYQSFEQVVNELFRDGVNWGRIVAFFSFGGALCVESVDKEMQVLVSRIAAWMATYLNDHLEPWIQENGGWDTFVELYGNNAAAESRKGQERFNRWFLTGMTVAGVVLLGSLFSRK

CN1CCN(c2cc3c(c4c2[nH]c2ccccc24)C(=O)CC(C)(C)C3)CC1
CC50 [1]: 15.6 µM (active) | EC50 [2]: 13.2 µM (active) | EC50 [3]: 12.9 µM (active) | EC50 [4]: 11.4 µM (active) | EC50 [5]: 10.4 µM (active) | AC50 [6]: 7.77 µM (active) | AC50 [7]: 9.48 µM (active)

CC(C)(C)OC(=O)c1c(N)n(Cc2ccco2)c2nc3ccccc3nc12
IC50 [8]: > 100 µM (not active)

CC(C)Cc1ccc(/C=C/C(=O)N2CCOCC2)cc1
EC50 [9]: 682 nM (active) | EC50 [10]: < 100 nM (inconclusive) | EC50 (H4): 843 nM (active) | EC50 [11]: 374 nM (active) | EC50 [12]: 250 nM (active)

CCOc1ccccc1N1C(=O)NC(=O)/C(=C\Nc2ccc(N(CC)CC)cc2)C1=O
EC50 [13]: > 300 µM (not active) | EC50 [14]: > 300 µM (inconclusive) | AC50 [15]: 40.9 µM (active) | AC50 [16]: 51 µM (active) | IC50 [17]: 18.3 µM (active) | IC50 [18]: > 100 µM (inactive) | IC50 (Prothrombin): 13.4 µM (active) | CC50 [19]: 26 µM (active) | IC50 [20]: > 57.5 µM (active)

COc1cc(NC(=O)c2cc3nc(C)cc(C)n3n2)c(OC)cc1Cl
EC50 [9]: 389 nM (active) | EC50 [10]: 278 nM (active) | EC50 (H4): < 100 nM (active) | EC50 [11]: 323 nM (active) | EC50 [12]: 392 nM (active)

O=C(Cn1cnc2sc(-c3ccccc3)cc2c1=O)NCc1ccco1
IC50 [21]: 5.16 µM (active) | IC50 (Bcl-2-like protein 1): > 109 µM (not active)

CCCn1c(O)nnc1Sc1nnnn1-c1ccccc1
EC50 [22]: 40.1 µM (active) | EC50 [10]: 6750 nM (active) | EC50 (H4): > 120000 nM (not active) | IC50 [20]: > 100 µM (active)
